Laboratory results from ChEMBL document CHEMBL4270546, “A novel Anti-Cancer Stem Cells compound optimized from the natural symplostatin 4 scaffold inhibits Wnt/β-catenin signaling pathway” (Eur J Med Chem, 2018).
pIC50: −log10 of the molar value.

Assays:
Format in all cases: functional, cell-based
MCF7 = assay: Antiproliferative activity against human MCF7 cells after 48 hrs by MTT assay; conditions: MCF7, 48 h
MDA-MB-231 = assay: Antiproliferative activity against human MDA-MB-231 cells after 48 hrs by MTT assay; conditions: MDA-MB-231, 48 h
4T1 = assay: Antiproliferative activity against mouse 4T1 cells after 48 hrs by MTT assay; conditions: 4T1, 48 h
A-375 = assay: Antiproliferative activity against human A375 cells after 48 hrs by MTT assay; conditions: A-375, 48 h
B16-F10 = assay: Antiproliferative activity against mouse B16F10 cells after 48 hrs by MTT assay; conditions: B16-F10, 48 h
PANC-1 = assay: Antiproliferative activity against human PANC1 cells after 48 hrs by MTT assay; conditions: PANC-1, 48 h
A549 = assay: Antiproliferative activity against human A549 cells after 48 hrs by MTT assay; conditions: A549, 48 h
HeLa = assay: Antiproliferative activity against human HeLa cells
HT-29 = assay: Antiproliferative activity against human HT-29 cells

CC[C@H](C)[C@H](NC(=O)OCc1ccccc1)C(=O)N[C@@H](CC(C)C)C(=O)N[C@@H](CC(C)C)C(=O)N[C@@H](C)/C=C/C(=O)N1C(=O)C=C(OC)[C@@H]1Cc1ccccc1
pIC50 (MCF7): < 4.00 | pIC50 (MDA-MB-231): < 4.00 | pIC50 (4T1): < 4.00 | pIC50 (A-375): < 4.00 | pIC50 (B16-F10): < 4.00 | pIC50 (PANC-1): < 4.00 | pIC50 (A549): < 4.00

CC[C@H](C)[C@H](NC(=O)OCc1ccccc1)C(=O)O[C@@H](CC(C)C)C(=O)N[C@@H](CC(C)C)C(=O)N[C@@H](C)/C=C/C(=O)N1C(=O)C=C(OC)[C@@H]1C(C)C
pIC50 (MCF7): 4.67 | pIC50 (MDA-MB-231): 4.89 | pIC50 (4T1): 4.55 | pIC50 (A-375): 4.86 | pIC50 (B16-F10): 4.60 | pIC50 (PANC-1): 4.71 | pIC50 (A549): 4.56

CC[C@H](C)[C@@H](C(=O)N[C@@H](CC(C)C)C(=O)N[C@@H](CC(C)C)C(=O)N[C@@H](C)/C=C/C(=O)N1C(=O)C=C(OC)[C@@H]1C(C)C)N(C)C
pIC50 (MCF7): < 4.00 | pIC50 (MDA-MB-231): 4.01 | pIC50 (4T1): 4.56 | pIC50 (A-375): 4.45 | pIC50 (B16-F10): 4.21 | pIC50 (PANC-1): 4.44 | pIC50 (A549): 4.28

COC1=CC(=O)N(C(=O)/C=C/[C@H](C)NC(=O)[C@H](CC(C)C)N(C)C)[C@H]1C(C)C
pIC50 (MCF7): 4.73 | pIC50 (MDA-MB-231): 4.05 | pIC50 (4T1): < 4.00 | pIC50 (A-375): 5.12 | pIC50 (B16-F10): 4.52 | pIC50 (PANC-1): 4.89 | pIC50 (A549): < 4.00

CC[C@H](C)[C@@H](C(=O)N[C@@H](CC(C)C)C(=O)N[C@@H](CC(C)C)C(=O)N[C@@H](C)/C=C/C(=O)N1C(=O)C=C(OC)[C@@H]1C)N(C)C
pIC50 (MCF7): 4.41 | pIC50 (MDA-MB-231): 4.42 | pIC50 (4T1): 4.78 | pIC50 (A-375): 4.95 | pIC50 (B16-F10): 4.82 | pIC50 (PANC-1): 4.80 | pIC50 (A549): 4.30

CC[C@H](C)[C@@H](C(=O)O[C@@H](CC(C)C)C(=O)N[C@@H](CC(C)C)C(=O)N[C@@H](C)/C=C/C(=O)NC(C)(C)C)N(C)C
pIC50 (MCF7): < 4.00 | pIC50 (MDA-MB-231): < 4.00 | pIC50 (4T1): < 4.00 | pIC50 (A-375): < 4.00 | pIC50 (B16-F10): < 4.00 | pIC50 (PANC-1): 4.42 | pIC50 (A549): < 4.00

CC[C@H](C)[C@H](NC(=O)OCc1ccccc1)C(=O)N[C@@H](CC(C)C)C(=O)N[C@@H](CC(C)C)C(=O)N[C@@H](C)/C=C/C(=O)N1C(=O)C=C(OC)[C@@H]1C
pIC50 (MCF7): 5.33 | pIC50 (MDA-MB-231): 5.71 | pIC50 (4T1): 5.72 | pIC50 (A-375): 5.87 | pIC50 (B16-F10): 6.05 | pIC50 (PANC-1): 6.10 | pIC50 (A549): 4.82

C#CCCC(=O)N[C@H](C(=O)N[C@@H](CC(C)C)C(=O)N[C@@H](CC(C)C)C(=O)N[C@@H](C)/C=C/C(=O)N1C(=O)C=C(OC)[C@@H]1C(C)C)[C@@H](C)CC
pIC50 (MCF7): 4.83 | pIC50 (MDA-MB-231): 4.65 | pIC50 (4T1): 4.70 | pIC50 (A-375): 5.00 | pIC50 (B16-F10): 5.15 | pIC50 (PANC-1): 5.28 | pIC50 (A549): 4.44

CC[C@H](C)[C@@H](C(=O)O[C@@H](CC(C)C)C(=O)N[C@@H](CC(C)C)C(=O)N[C@@H](C)/C=C/C(=O)N1C(=O)C=C(OC)[C@@H]1C)N(C)C [GALLINAMIDE A]
pIC50 (HeLa): 4.92 | pIC50 (HT-29): 4.28 | pIC50 (MCF7): 4.34 | pIC50 (MDA-MB-231): 4.46 | pIC50 (4T1): 4.46 | pIC50 (A-375): 4.34 | pIC50 (B16-F10): 4.22 | pIC50 (PANC-1): 4.51 | pIC50 (A549): 4.39

CC[C@H](C)[C@H](NC(=O)OCc1ccccc1)C(=O)N[C@@H](CC(C)C)C(=O)N[C@@H](CC(C)C)C(=O)N[C@@H](C)/C=C/C(=O)N1C(=O)C=C(OC)[C@@H]1c1c[nH]c2ccccc12
pIC50 (MCF7): < 4.00 | pIC50 (MDA-MB-231): < 4.00 | pIC50 (4T1): < 4.00 | pIC50 (A-375): < 4.00 | pIC50 (B16-F10): < 4.00 | pIC50 (PANC-1): < 4.00 | pIC50 (A549): < 4.00

CC[C@H](C)[C@H](NC(=O)OCc1ccccc1)C(=O)O[C@@H](CC(C)C)C(=O)N[C@@H](CC(C)C)C(=O)N[C@@H](C)/C=C/C(=O)N1C(=O)C=C(OC)[C@@H]1C
pIC50 (MCF7): 4.48 | pIC50 (MDA-MB-231): 4.81 | pIC50 (4T1): 4.83 | pIC50 (A-375): 5.26 | pIC50 (B16-F10): 5.37 | pIC50 (PANC-1): 4.85 | pIC50 (A549): 4.86

CC[C@H](C)[C@H](NC(=O)OCc1ccccc1)C(=O)O[C@@H](CC(C)C)C(=O)N[C@@H](CC(C)C)C(=O)N[C@@H](C)/C=C/C(=O)N1C(=O)C=C(OC)[C@@H]1Cc1ccccc1
pIC50 (MCF7): < 4.00 | pIC50 (MDA-MB-231): < 4.00 | pIC50 (4T1): 4.10 | pIC50 (A-375): 4.34 | pIC50 (B16-F10): 4.52 | pIC50 (PANC-1): 4.23 | pIC50 (A549): 4.38

CC[C@H](C)[C@@H](C(=O)O[C@@H](CC(C)C)C(=O)N[C@@H](CC(C)C)C(=O)N[C@@H](C)/C=C/C(=O)OC)N(C)C
pIC50 (MCF7): < 4.00 | pIC50 (MDA-MB-231): < 4.00 | pIC50 (4T1): < 4.00 | pIC50 (A-375): < 4.00 | pIC50 (B16-F10): < 4.00 | pIC50 (PANC-1): < 4.00 | pIC50 (A549): < 4.00

CC[C@H](C)[C@@H](C(=O)O[C@@H](CC(C)C)C(=O)N[C@@H](CC(C)C)C(=O)N[C@@H](C)/C=C/C(=O)N(CC)CC)N(C)C
pIC50 (MCF7): < 4.00 | pIC50 (MDA-MB-231): < 4.00 | pIC50 (4T1): < 4.00 | pIC50 (A-375): < 4.00 | pIC50 (B16-F10): < 4.00 | pIC50 (PANC-1): < 4.00 | pIC50 (A549): < 4.00

COC1=CC(=O)N(C(=O)/C=C/[C@H](C)NC(=O)[C@H](CC(C)C)N(C)C)[C@@H]1Cc1ccccc1
pIC50 (MCF7): < 4.00 | pIC50 (MDA-MB-231): 4.02 | pIC50 (4T1): < 4.00 | pIC50 (A-375): < 4.00 | pIC50 (B16-F10): < 4.00 | pIC50 (PANC-1): 4.06 | pIC50 (A549): < 4.00

CC[C@H](C)[C@H](NC(=O)Nc1ccc(OC)cc1)C(=O)N[C@@H](CC(C)C)C(=O)N[C@@H](CC(C)C)C(=O)N[C@@H](C)/C=C/C(=O)N1C(=O)C=C(OC)[C@@H]1C(C)C
pIC50 (MCF7): 5.00 | pIC50 (MDA-MB-231): 4.60 | pIC50 (4T1): 4.45 | pIC50 (A-375): 4.35 | pIC50 (B16-F10): 4.22 | pIC50 (PANC-1): < 4.00 | pIC50 (A549): 4.68

COC1=CC(=O)N(C(=O)/C=C/[C@H](C)NC(=O)[C@H](CC(C)C)N(C)C)[C@H]1Cc1ccccc1
pIC50 (MCF7): < 4.00 | pIC50 (MDA-MB-231): 4.24 | pIC50 (4T1): < 4.00 | pIC50 (A-375): < 4.00 | pIC50 (B16-F10): < 4.00 | pIC50 (PANC-1): 4.17 | pIC50 (A549): < 4.00

COC1=CC(=O)N(C(=O)/C=C/[C@H](C)NC(=O)[C@H](CC(C)C)N(C)C)[C@H]1C
pIC50 (MCF7): 4.12 | pIC50 (MDA-MB-231): 4.10 | pIC50 (4T1): 4.72 | pIC50 (A-375): 4.94 | pIC50 (B16-F10): 4.53 | pIC50 (PANC-1): 4.09 | pIC50 (A549): 4.52

CC[C@H](C)[C@@H](C(=O)O[C@@H](CC(C)C)C(=O)N[C@@H](CC(C)C)C(=O)N[C@@H](C)/C=C/C(=O)N1CCOCC1)N(C)C
pIC50 (MCF7): < 4.00 | pIC50 (MDA-MB-231): < 4.00 | pIC50 (4T1): < 4.00 | pIC50 (A-375): < 4.00 | pIC50 (B16-F10): < 4.00 | pIC50 (PANC-1): < 4.00 | pIC50 (A549): < 4.00

CC[C@H](C)[C@H](NC(=O)Cc1cccc(C(F)(F)F)c1)C(=O)N[C@@H](CC(C)C)C(=O)N[C@@H](CC(C)C)C(=O)N[C@@H](C)/C=C/C(=O)N1C(=O)C=C(OC)[C@@H]1C(C)C
pIC50 (MCF7): 4.95 | pIC50 (MDA-MB-231): 4.48 | pIC50 (4T1): 4.39 | pIC50 (A-375): 4.82 | pIC50 (B16-F10): 4.82 | pIC50 (PANC-1): 4.94 | pIC50 (A549): 4.84
